According to patent US20240293558A1, “KRAS INHIBITOR CONJUGATES” (Erasca, Inc., priority 2021, published 2024):

What was measured:
KRAS (WT) = molecular target: T1, KRAS (WT) (Homo sapiens, UniProt P01116); assay: In-vitro RAS-RAF binding assay (RRB), HTRF/FRET; assay type: biochemical; details: Table 2, average of multiple runs of each compound; read-out: Inhibition of RAS-RAF Binding (in-vitro) KRAS (WT) IC50
T1 construct: Biotinylated KRAS protein amino acids 1-169 (produced at Erasca); made in house
Summary of the method: (§1)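 Compounds preincubated with terbium-labelled biotinylated KRAS (aa 1-169, 30 nM) before 60 min SOS1-catalysed exchange to GTPgS. Binding of the d2-labelled cRAF RBD (30 nM) is read as FRET at equilibrium in duplicate. Buffer: 50 mM HEPES pH 7.5, 100 mM NaCl, 1 mM MgCl2, 1 mM DTT.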

KRAS G12D = KRAS G12D (Homo sapiens, UniProt P01116, G12D); assay: In-vitro RAS-RAF binding assay (RRB), HTRF/FRET; assay type: biochemical; design: Biotinylated KRAS protein amino acids 1-169 (produced at Erasca); made in house; details: Table 2, average of multiple runs of each compound; read-out: Inhibition of RAS-RAF Binding (in-vitro) KRAS (G12D) IC50
Summary of the method: as §1

Chain of KRAS G12D (P01116 1-169 isoform P01116-2 G12D): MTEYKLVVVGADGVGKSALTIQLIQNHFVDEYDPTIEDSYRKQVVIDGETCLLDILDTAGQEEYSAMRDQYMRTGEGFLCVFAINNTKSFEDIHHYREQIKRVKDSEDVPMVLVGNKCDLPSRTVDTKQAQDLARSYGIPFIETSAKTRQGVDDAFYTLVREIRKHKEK
T1 sequence (P01116 1-169 isoform P01116-2): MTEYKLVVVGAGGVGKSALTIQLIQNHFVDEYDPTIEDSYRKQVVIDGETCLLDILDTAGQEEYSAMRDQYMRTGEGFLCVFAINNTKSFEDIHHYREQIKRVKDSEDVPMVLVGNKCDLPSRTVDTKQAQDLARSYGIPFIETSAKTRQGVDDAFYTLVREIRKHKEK

SMILES | IC50 (KRAS (WT)) [nM] | IC50 (KRAS G12D) [nM]
C#Cc1c(F)ccc2cc(O)cc(-c3ncc4c(N5CC6CCC(C5)N6)nc(OC[C@@H]5CCCN5CCCOCCC(=O)N[C@H](C(=O)N5C[C@H](O)C[C@H]5C(=O)N[C@@H](C)c5ccc(-c6c(C)ccc(C)c6C)cc5)C(C)(C)C)nc4c3F)c12 [Example 56, (2S,4R)-1-((2S)-2-(3-(3-((2S)-2-(((4-(3,8-diazabicyclo[3.2.1]octan-3-yl)-7-(8-ethynyl-7-fluoro-3-hydroxynaphthalen-1-yl)-8-fluoropyrido[4,3-d]pyrimidin-2-yl)oxy)methyl)pyrrolidin-1-yl)propoxy)propanamido)-3,3-dimethylbutanoyl)-4-hydroxy-N-((S)-1-(2′,3′,6′-trimethyl-[1,1′-biphenyl]-4-yl)ethyl)pyrrolidine-2-carboxamide] | 65.7 | 9.36
C#Cc1c(F)ccc2cc(O)cc(-c3ncc4c(N5CC6CCC(C5)N6)nc(OC[C@@H]5CCCN5CCCOCCC(=O)N[C@H](C(=O)N5C[C@H](O)C[C@H]5C(=O)N[C@@H](C)c5ccc(-c6c(Cl)ccc(Cl)c6Cl)cc5)C(C)(C)C)nc4c3F)c12 [Example 57, (2S,4R)-1-((2S)-2-(3-(3-((2S)-2-(((4-(3,8-diazabicyclo[3.2.1]octan-3-yl)-7-(8-ethynyl-7-fluoro-3-hydroxynaphthalen-1-yl)-8-fluoropyrido[4,3-d]pyrimidin-2-yl)oxy)methyl)pyrrolidin-1-yl)propoxy)propanamido)-3,3-dimethylbutanoyl)-4-hydroxy-N-((S)-1-(2′,3′,6′-trichloro-[1,1′-biphenyl]-4-yl)ethyl)pyrrolidine-2-carboxamide] | 118 | 13.1
C#Cc1c(F)ccc2cc(O)cc(-c3ncc4c(N5CC6CCC(C5)N6)nc(OC[C@@H]5CCCN5CCCOCCC(=O)N[C@H](C(=O)N5C[C@H](O)C[C@H]5C(=O)N[C@@H](C)c5ccc(-c6cc(F)cc(F)c6F)cc5)C(C)(C)C)nc4c3F)c12 [Example 58, (2S,4R)-1-((2S)-2-(3-(3-((2S)-2-(((4-(3,8-diazabicyclo[3.2.1]octan-3-yl)-7-(8-ethynyl-7-fluoro-3-hydroxynaphthalen-1-yl)-8-fluoropyrido[4,3-d]pyrimidin-2-yl)oxy)methyl)pyrrolidin-1-yl)propoxy)propanamido)-3,3-dimethylbutanoyl)-4-hydroxy-N-((S)-1-(2′,3′,5′-trifluoro-[1,1′-biphenyl]-4-yl)ethyl)pyrrolidine-2-carboxamide] | 65.9 | 9.55
C#Cc1c(F)ccc2cc(O)cc(-c3ncc4c(N5CC6CCC(C5)N6)nc(OC[C@@H]5CCCN5CCCOCCC(=O)N[C@H](C(=O)N5C[C@H](O)C[C@H]5C(=O)N[C@@H](C)c5ccc(-c6c(F)c(F)c(F)c(F)c6F)cc5)C(C)(C)C)nc4c3F)c12 [Example 59, (2S,4R)-1-((2S)-2-(3-(3-((2S)-2-(((4-(3,8-diazabicyclo[3.2.1]octan-3-yl)-7-(8-ethynyl-7-fluoro-3-hydroxynaphthalen-1-yl)-8-fluoropyrido[4,3-d]pyrimidin-2-yl)oxy)methyl)pyrrolidin-1-yl)propoxy)propanamido)-3,3-dimethylbutanoyl)-4-hydroxy-N-((S)-1-(2′,3′,4′,5′,6′-pentafluoro-[1,1′-biphenyl]-4-yl)ethyl)pyrrolidine-2-carboxamide] | 73.1 | 7.52
C#Cc1c(F)ccc2cc(O)cc(-c3ncc4c(N5CC6CCC(C5)N6)nc(OCCN5CCC(C)(COc6cc([C@H](C(=O)N7C[C@H](O)C[C@H]7C(=O)N[C@@H](C)c7ccc(-c8c(F)cccc8F)cc7)C(C)C)on6)CC5)nc4c3F)c12 [Example 61, (2S,4R)-1-((2R)-2-(3-((1-(2-((4-(3,8-diazabicyclo[3.2.1]octan-3-yl)-7-(8-ethynyl-7-fluoro-3-hydroxynaphthalen-1-yl)-8-fluoropyrido[4,3-d]pyrimidin-2-yl)oxy)ethyl)-4-methylpiperidin-4-yl)methoxy)isoxazol-5-yl)-3-methylbutanoyl)-N-((S)-1-(2′,6′-difluoro-[1,1′-biphenyl]-4-yl)ethyl)-4-hydroxypyrrolidine-2-carboxamide] | 1200 | 8.99
C#Cc1c(F)ccc2cc(O)cc(-c3ncc4c(N5CC6CCC(C5)N6)nc(OCCN5CCC(F)(COc6cc([C@H](C(=O)N7C[C@H](O)C[C@H]7C(=O)N[C@@H](C)c7ccc(-c8c(F)cccc8F)cc7)C(C)C)on6)CC5)nc4c3F)c12 [Example 62, (2S,4R)-1-((2R)-2-(3-((1-(2-((4-(3,8-diazabicyclo[3.2.1]octan-3-yl)-7-(8-ethynyl-7-fluoro-3-hydroxynaphthalen-1-yl)-8-fluoropyrido[4,3-d]pyrimidin-2-yl)oxy)ethyl)-4-fluoropiperidin-4-yl)methoxy)isoxazol-5-yl)-3-methylbutanoyl)-N-((S)-1-(2′,6′-difluoro-[1,1′-biphenyl]-4-yl)ethyl)-4-hydroxypyrrolidine-2-carboxamide] | > 10000 | 13.4
C#Cc1c(F)ccc2cc(O)cc(-c3ncc4c(N5CC6CCC(C5)N6)nc(OCCN5CCC(COc6cc([C@H](C(=O)N7C[C@H](O)C[C@H]7C(=O)N[C@@H](C)c7ccc(-c8c(F)cc(F)cc8F)cc7)C(C)C)on6)CC5)nc4c3F)c12 [Example 63, (2S,4R)-1-((2R)-2-(3-((1-(2-((4-(3,8-diazabicyclo[3.2.1]octan-3-yl)-7-(8-ethynyl-7-fluoro-3-hydroxynaphthalen-1-yl)-8-fluoropyrido[4,3-d]pyrimidin-2-yl)oxy)ethyl)piperidin-4-yl)methoxy)isoxazol-5-yl)-3-methylbutanoyl)-4-hydroxy-N-((S)-1-(2′,4′,6′-trifluoro-[1,1′-biphenyl]-4-yl)ethyl)pyrrolidine-2-carboxamide] | 8330 | 10.6
C#Cc1c(F)ccc2cc(O)cc(-c3ncc4c(N5CC6CCC(C5)N6)nc(OCCN5CCC(C)(COc6cc([C@H](C(=O)N7C[C@H](O)C[C@H]7C(=O)N[C@@H](C)c7ccc(-c8c(F)cc(F)cc8F)cc7)C(C)C)on6)CC5)nc4c3F)c12 [Example 64, (2S,4R)-1-((2R)-2-(3-((1-(2-((4-(3,8-diazabicyclo[3.2.1]octan-3-yl)-7-(8-ethynyl-7-fluoro-3-hydroxynaphthalen-1-yl)-8-fluoropyrido[4,3-d]pyrimidin-2-yl)oxy)ethyl)-4-methylpiperidin-4-yl)methoxy)isoxazol-5-yl)-3-methylbutanoyl)-4-hydroxy-N-((S)-1-(2′,4′,6′-trifluoro-[1,1′-biphenyl]-4-yl)ethyl)pyrrolidine-2-carboxamide] | 1410 | 9.62
C#Cc1c(F)ccc2cc(O)cc(-c3ncc4c(N5CC6CCC(C5)N6)nc(OCCN5CCC(F)(COc6cc([C@H](C(=O)N7C[C@H](O)C[C@H]7C(=O)N[C@@H](C)c7ccc(-c8c(F)cc(F)cc8F)cc7)C(C)C)on6)CC5)nc4c3F)c12 [Example 65, (2S,4R)-1-((2R)-2-(3-((1-(2-((4-(3,8-diazabicyclo[3.2.1]octan-3-yl)-7-(8-ethynyl-7-fluoro-3-hydroxynaphthalen-1-yl)-8-fluoropyrido[4,3-d]pyrimidin-2-yl)oxy)ethyl)-4-fluoropiperidin-4-yl)methoxy)isoxazol-5-yl)-3-methylbutanoyl)-4-hydroxy-N-((S)-1-(2′,4′,6′-trifluoro-[1,1′-biphenyl]-4-yl)ethyl)pyrrolidine-2-carboxamide] | > 10000 | 11.1
CC(C)[C@@H](C(=O)N1C[C@H](O)C[C@H]1C(=O)N[C@@H](C)c1ccc(-c2c(F)cccc2F)cc1)c1cc(OCC2(C)CCN(CCOc3nc(N4CC5CCC(C4)N5)c4cc(Cl)c(-c5ccc(F)c6sc(N)c(C#N)c56)c(F)c4n3)CC2)no1 [Example 66, (2S,4R)-1-((2R)-2-(3-((1-(2-((7-(2-amino-3-cyano-7-fluorobenzo[b]thiophen-4-yl)-4-(3,8-diazabicyclo[3.2.1]octan-3-yl)-6-chloro-8-fluoroquinazolin-2-yl)oxy)ethyl)-4-methylpiperidin-4-yl)methoxy)isoxazol-5-yl)-3-methylbutanoyl)-N-((S)-1-(2′,6′-difluoro-[1,1′-biphenyl]-4-yl)ethyl)-4-hydroxypyrrolidine-2-carboxamide] | ≥ 10000 | 19.8
C[C@H](NC(=O)[C@@H]1C[C@@H](O)CN1C(=O)[C@@H](NC(=O)CCOCCCN1CCC[C@H]1COc1nc(N2CC3CCC(C2)N3)c2cc(C(F)(F)F)c(-c3ccc(F)c4sc(N)c(C#N)c34)c(F)c2n1)C(C)(C)C)c1ccc(-c2c(F)cccc2F)cc1 [Example 79, (2S,4R)-1-((2S)-2-(3-(3-((2S)-2-((((7R)-7-(2-amino-3-cyano-7-fluorobenzo[b]thiophen-4-yl)-4-(3,8-diazabicyclo[3.2.1]octan-3-yl)-8-fluoro-6-(trifluoromethyl)quinazolin-2-yl)oxy)methyl)pyrrolidin-1-yl)propoxy)propanamido)-3,3-dimethylbutanoyl)-N-((S)-1-(2′,6′-difluoro-[1,1′-biphenyl]-4-yl)ethyl)-4-hydroxypyrrolidine-2-carboxamide] | > 10000 | > 10000
Cc1ncsc1-c1ccc([C@H](C)NC(=O)[C@@H]2C[C@@H](O)CN2C(=O)[C@@H](NC(=O)CCOCCCN2CCC[C@H]2COc2nc(N3CC4CCC(C3)N4)c3cc(C(F)(F)F)c(-c4ccc(F)c5sc(N)c(C#N)c45)cc3n2)C(C)(C)C)cc1 [Example 80, (2S,4R)-1-((2S)-2-(3-(3-((2S)-2-(((7-(2-amino-3-cyano-7-fluorobenzo[b]thiophen-4-yl)-4-(3,8-diazabicyclo[3.2.1]octan-3-yl)-6-(trifluoromethyl)quinazolin-2-yl)oxy)methyl)pyrrolidin-1-yl)propoxy)propanamido)-3,3-dimethylbutanoyl)-4-hydroxy-N-((S)-1-(4-(4-methylthiazol-5-yl)phenyl)ethyl)pyrrolidine-2-carboxamide] | 63.7 | 13.9
